Laboratory results: ChEMBL document CHEMBL5608198 (Eur J Med Chem, 2024)
Activity calls are given as the source filed them. No cut-off for these calls is given here.

System: PBMC
Assay: Effect on cell proliferation of human PBMC into human Vgamma9Vdelta2 T cells assessed as decrease in HMBPP response upto 100 uM incubated for 3 days followed by compound washout with recurrent addition of IL-2 on every 3 days measured after 11 days in presence of HMBPP by flow cytometry
Assay type: functional, cell-based
Details: time 3.0 day

Compound | Activity
O=P(O)(O)OP(=O)(O)OC/C=C(/CO)Cc1ccc(Br)cc1 | Active
O=P(O)(O)OP(=O)(O)OC/C=C(/CO)Cc1ccccc1 | Active
Cc1ccc(C/C(=C\COP(=O)(O)OP(=O)(O)O)CO)cc1 | Active
